The structures appear in SMILES notation.

One test has as its target T1, HiBit-BRM fusion protein (Homo sapiens, UniProt P51531).
T1 construct: expressed in transfected cells
In words: HiBiT-BRM cell-based degradation assay (Nano-Glo HiBiT Lytic Detection). Conditions: stable HeLa cell line expressing HiBiT-BRM, 24 h incubation; for BRM HiBit Degradation Maximum (%): top dose 30 μM; for DC50: read-out: BRM HiBit Degradation IC50. A digest of the protocol: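 HeLa cells stably expressing HiBiT-BRM were treated for 24 h with compounds (10-point 3-fold dilutions, 30 μM final top dose, in duplicate). HiBiT was detected by lytic LgBiT complementation luminescence. % degradation was normalized to DMSO (high control) and 2 μM of a reference BRM/BRG1 degrader (low control).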
Background: With HiBiT, luminescence reflects the tagged protein that the partner subunit can reach.

For test [1], the target named is T2, HiBit-BRG1 fusion protein (Homo sapiens, UniProt P51532).
T2 construct: expressed in transfected cells
T2 sequence (P51532 whole entry, the tested form may be a part): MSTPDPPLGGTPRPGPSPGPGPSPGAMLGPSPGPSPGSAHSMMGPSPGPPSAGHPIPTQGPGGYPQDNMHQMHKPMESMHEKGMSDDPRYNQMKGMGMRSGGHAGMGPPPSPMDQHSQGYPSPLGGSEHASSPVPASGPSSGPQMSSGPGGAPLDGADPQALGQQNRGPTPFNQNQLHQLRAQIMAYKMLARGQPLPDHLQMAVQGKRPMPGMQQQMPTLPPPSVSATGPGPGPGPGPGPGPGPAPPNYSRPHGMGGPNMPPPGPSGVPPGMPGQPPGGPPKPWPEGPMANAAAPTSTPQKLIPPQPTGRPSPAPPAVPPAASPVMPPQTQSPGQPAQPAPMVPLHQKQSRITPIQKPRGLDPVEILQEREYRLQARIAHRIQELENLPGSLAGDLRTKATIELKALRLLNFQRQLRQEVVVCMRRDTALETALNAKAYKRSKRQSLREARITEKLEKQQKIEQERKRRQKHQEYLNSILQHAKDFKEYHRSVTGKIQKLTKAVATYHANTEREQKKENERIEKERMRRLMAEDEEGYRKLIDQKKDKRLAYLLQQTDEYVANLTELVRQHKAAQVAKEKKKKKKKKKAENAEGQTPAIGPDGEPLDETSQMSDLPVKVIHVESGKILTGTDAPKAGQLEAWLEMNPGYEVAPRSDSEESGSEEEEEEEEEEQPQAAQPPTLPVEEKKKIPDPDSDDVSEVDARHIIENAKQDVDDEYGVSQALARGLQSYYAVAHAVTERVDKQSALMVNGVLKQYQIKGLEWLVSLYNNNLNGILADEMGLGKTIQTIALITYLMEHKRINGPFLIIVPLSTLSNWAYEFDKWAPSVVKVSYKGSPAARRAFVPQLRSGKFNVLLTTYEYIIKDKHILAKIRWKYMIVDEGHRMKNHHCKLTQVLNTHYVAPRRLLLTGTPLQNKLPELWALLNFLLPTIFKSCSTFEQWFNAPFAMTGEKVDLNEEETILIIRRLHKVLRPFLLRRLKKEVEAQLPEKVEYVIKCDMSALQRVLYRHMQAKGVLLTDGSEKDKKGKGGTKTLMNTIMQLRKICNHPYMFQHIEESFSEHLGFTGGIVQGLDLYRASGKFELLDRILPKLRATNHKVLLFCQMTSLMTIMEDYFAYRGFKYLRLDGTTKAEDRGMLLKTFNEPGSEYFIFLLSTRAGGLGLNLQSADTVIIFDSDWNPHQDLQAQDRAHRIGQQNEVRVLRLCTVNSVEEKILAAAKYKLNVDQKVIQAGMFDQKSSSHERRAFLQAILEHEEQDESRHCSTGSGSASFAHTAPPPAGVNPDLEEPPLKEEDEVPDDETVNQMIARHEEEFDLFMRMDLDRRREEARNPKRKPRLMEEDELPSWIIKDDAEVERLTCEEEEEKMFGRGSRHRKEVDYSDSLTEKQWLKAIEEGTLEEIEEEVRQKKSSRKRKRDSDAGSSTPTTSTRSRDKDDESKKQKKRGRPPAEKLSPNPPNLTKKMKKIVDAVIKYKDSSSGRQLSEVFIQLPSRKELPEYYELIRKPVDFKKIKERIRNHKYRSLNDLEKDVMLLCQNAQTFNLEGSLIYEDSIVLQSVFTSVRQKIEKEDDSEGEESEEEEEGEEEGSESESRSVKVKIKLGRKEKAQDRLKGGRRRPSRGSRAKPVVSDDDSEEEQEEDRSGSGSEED
Description: HiBiT-BRG1 cell-based degradation assay (Nano-Glo HiBiT Lytic Detection). The following applies: stable HeLa cell line expressing HiBit-BRG1 and LgBit, 24 h incubation; for Dmax: top dose 30 μM, read-out: BRG1 HiBit Degradation Maximum (%); for DC50: read-out: BRMG1 HiBit Degradation IC50. The essentials: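 HeLa cells stably expressing HiBiT-BRG1 and LgBiT treated 24 h with 10-point 3-fold dilutions (top 30 μM, duplicate). Luminescence read after Nano-Glo HiBiT lytic reagent; % degradation relative to DMSO (high control) and 2 μM reference BRM/BRG1 degrader (low control).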

T1 sequence (P51531 whole entry, the tested form may be a part): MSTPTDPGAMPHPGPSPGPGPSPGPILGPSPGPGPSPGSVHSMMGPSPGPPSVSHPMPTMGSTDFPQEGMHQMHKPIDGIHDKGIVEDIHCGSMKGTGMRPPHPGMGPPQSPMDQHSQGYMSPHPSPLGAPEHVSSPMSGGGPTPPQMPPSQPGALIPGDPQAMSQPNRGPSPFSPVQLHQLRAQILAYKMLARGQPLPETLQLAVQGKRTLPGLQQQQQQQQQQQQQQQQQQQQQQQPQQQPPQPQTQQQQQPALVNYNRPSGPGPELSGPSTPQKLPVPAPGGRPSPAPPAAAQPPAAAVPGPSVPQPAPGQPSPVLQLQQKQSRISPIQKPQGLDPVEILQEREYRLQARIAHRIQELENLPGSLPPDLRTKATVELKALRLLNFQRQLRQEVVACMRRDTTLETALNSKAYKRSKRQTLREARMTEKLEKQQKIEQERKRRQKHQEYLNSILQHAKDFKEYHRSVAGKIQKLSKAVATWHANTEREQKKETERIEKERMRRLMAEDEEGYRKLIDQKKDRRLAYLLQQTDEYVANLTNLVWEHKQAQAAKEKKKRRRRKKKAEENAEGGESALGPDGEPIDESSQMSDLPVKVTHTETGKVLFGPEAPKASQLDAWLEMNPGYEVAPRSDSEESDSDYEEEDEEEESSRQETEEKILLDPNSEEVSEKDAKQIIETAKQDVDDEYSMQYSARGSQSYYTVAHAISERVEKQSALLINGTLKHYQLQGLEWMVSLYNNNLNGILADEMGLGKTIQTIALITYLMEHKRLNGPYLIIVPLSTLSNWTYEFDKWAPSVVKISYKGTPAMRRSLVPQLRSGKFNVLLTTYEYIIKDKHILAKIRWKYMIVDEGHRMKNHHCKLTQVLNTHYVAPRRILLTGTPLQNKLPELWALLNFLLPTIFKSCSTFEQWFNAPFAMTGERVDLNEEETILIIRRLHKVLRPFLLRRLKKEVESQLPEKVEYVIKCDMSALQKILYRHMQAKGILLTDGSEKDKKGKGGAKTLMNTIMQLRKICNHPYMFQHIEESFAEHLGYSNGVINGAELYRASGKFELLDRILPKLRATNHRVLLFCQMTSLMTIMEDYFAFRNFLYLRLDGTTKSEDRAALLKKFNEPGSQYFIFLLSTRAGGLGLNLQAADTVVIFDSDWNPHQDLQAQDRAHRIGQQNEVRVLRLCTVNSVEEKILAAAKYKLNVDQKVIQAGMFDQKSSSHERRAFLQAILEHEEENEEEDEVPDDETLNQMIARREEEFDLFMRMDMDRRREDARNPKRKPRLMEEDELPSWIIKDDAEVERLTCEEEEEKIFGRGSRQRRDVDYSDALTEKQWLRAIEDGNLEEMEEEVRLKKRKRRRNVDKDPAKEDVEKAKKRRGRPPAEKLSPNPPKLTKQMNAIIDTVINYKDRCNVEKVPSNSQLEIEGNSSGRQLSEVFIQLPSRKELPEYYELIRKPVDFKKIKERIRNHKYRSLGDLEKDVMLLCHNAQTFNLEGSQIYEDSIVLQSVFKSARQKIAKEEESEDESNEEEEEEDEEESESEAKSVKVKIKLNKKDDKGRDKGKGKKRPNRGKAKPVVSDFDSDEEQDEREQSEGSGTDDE

Regarding `Cc1cc([C@H](C(=O)N2C[C@H](O)C[C@H]2C(=O)NCc2ccc(-c3scnc3C)cc2OCCCN2CCC(c3sc4nnc(-c5ccccc5O)cc4c3C)CC2)C(C)C)on1` [Compound 57, (2S,4R)-4-hydroxy-N-(2-(3-(4-(3-(2-hydroxyphenyl)-5-methylthieno[2,3-c]pyridazin-6-yl)piperidin-1-yl)propoxy)-4-(4-methylthiazol-5-yl)benzyl)-1-((R)-3-methyl-2-(3-methylisoxazol-5-yl)butanoyl)pyrrolidine-2-carboxamide], at HiBit-BRM fusion protein, the “BRM HiBit Degradation Maximum (%)” value is “B (“B” indicates maximum degradation ≥ 50%)” and the DC50 is not below 10 nM. In test [1], the Dmax was less than 50% and the DC50 is not below 1000 nM.

For `Cc1ncsc1-c1ccc([C@H](C)NC(=O)[C@@H]2C[C@@H](O)CN2C(=O)[C@@H](c2cc(OCCN3C[C@H]4C[C@@H]3C[C@@H]4c3sc4nnc(-c5ccccc5O)cc4c3C)no2)C(C)C)cc1` [Compound 58, (2S,4R)-4-hydroxy-1-[(2R)-2-(3-{2-[(1R,4S,5S)-5-[3-(2-hydroxyphenyl)-5-methylthieno[2,3-c]pyridazin-6-yl]-2-azabicyclo[2.2.1]heptan-2-yl]ethoxy}-1,2-oxazol-5-yl)-3-methylbutanoyl]-N-[(1S)-1-[4-(4-methyl-1,3-thiazol-5-yl)phenyl]ethyl]pyrrolidine-2-carboxamide], on HiBit-BRM fusion protein, the “BRM HiBit Degradation Maximum (%)” value is on record as “A (“A” indicates maximum degradation ≥ 75%)” and the DC50 is not below 10 nM. Besides, in test [1], the Dmax was less than 50% and the DC50 was not below 1000 nM.

`Cc1ncsc1-c1ccc([C@H](C)NC(=O)[C@@H]2C[C@@H](O)CN2C(=O)[C@@H](c2cc(O[C@H]3C[C@H](N4CCC(c5sc6nnc(-c7ccccc7O)cc6c5C)CC4)C3)no2)C(C)C)cc1` [Compound 59, (2S,4R)-4-hydroxy-1-((R)-2-(3-((1r,3R)-3-(4-(3-(2-hydroxyphenyl)-5-methylthieno[2,3-c]pyridazin-6-yl)piperidin-1-yl)cyclobutoxy)isoxazol-5-yl)-3-methylbutanoyl)-N-((S)-1-(4-(4-methylthiazol-5-yl)phenyl)ethyl)pyrrolidine-2-carboxamide]: at HiBit-BRM fusion protein, the “BRM HiBit Degradation Maximum (%)” value is reported as “A (“A” indicates maximum degradation ≥ 75%)” and the DC50 was not below 1000 nM. In test [1], the Dmax is less than 50% and the DC50 was not below 1000 nM.

On to `Cc1ncsc1-c1ccc([C@H](C)NC(=O)[C@@H]2C[C@@H](O)CN2C(=O)[C@@H](c2cc(OCCN3C[C@H]4C[C@@H]3C[C@H]4c3sc4nnc(-c5ccccc5O)cc4c3C)no2)C(C)C)cc1` [Compound 60, (2S,4R)-4-hydroxy-1-((R)-2-(3-(2-((1R,4S,5R)-5-(3-(2-hydroxyphenyl)-5-methylthieno[2,3-c]pyridazin-6-yl)-2-azabicyclo[2.2.1]heptan-2-yl)ethoxy)isoxazol-5-yl)-3-methylbutanoyl)-N-((S)-1-(4-(4-methylthiazol-5-yl)phenyl)ethyl)pyrrolidine-2-carboxamide], for which, at HiBit-BRM fusion protein, the “BRM HiBit Degradation Maximum (%)” value is listed as “A (“A” indicates maximum degradation ≥ 75%)” and the DC50 is not below 10 nM. Moreover, in test [1], the Dmax was not below 50% and the DC50 was not below 100 nM.

As for `Cc1ncsc1-c1ccc([C@H](C)NC(=O)[C@@H]2C[C@@H](O)CN2C(=O)[C@@H](c2cc(O[C@H]3C[C@@H](N4CCC(c5sc6nnc(-c7ccccc7O)cc6c5C)CC4)C3)no2)C(C)C)cc1` [Compound 61, (2S,4R)-4-hydroxy-1-((R)-2-(3-((1s,3S)-3-(4-(3-(2-hydroxyphenyl)-5-methylthieno[2,3-c]pyridazin-6-yl)piperidin-1-yl)cyclobutoxy)isoxazol-5-yl)-3-methylbutanoyl)-N-((S)-1-(4-(4-methylthiazol-5-yl)phenyl)ethyl)pyrrolidine-2-carboxamide], on HiBit-BRM fusion protein, the “BRM HiBit Degradation Maximum (%)” value is given as “C (“C” indicates maximum degradation < 50%)” and the DC50 is not below 1000 nM. In test [1], the Dmax is less than 50% and the DC50 was not below 1000 nM.

On to `Cc1ncsc1-c1ccc([C@H](C)NC(=O)[C@@H]2C[C@@H](O)CN2C(=O)[C@@H](c2cc(OCCN3C[C@H]4C[C@@H](C3)[C@H]4c3sc4nnc(-c5ccccc5O)cc4c3C)no2)C(C)C)cc1` [Compound 62, (2S,4R)-4-hydroxy-1-((R)-2-(3-(2-((1R,5S,6S)-6-(3-(2-hydroxyphenyl)-5-methylthieno[2,3-c]pyridazin-6-yl)-3-azabicyclo[3.1.1]heptan-3-yl)ethoxy)isoxazol-5-yl)-3-methylbutanoyl)-N-((S)-1-(4-(4-methylthiazol-5-yl)phenyl)ethyl)pyrrolidine-2-carboxamide], for which, at HiBit-BRM fusion protein, the “BRM HiBit Degradation Maximum (%)” value is recorded as “C (“C” indicates maximum degradation < 50%)” and the DC50 was not below 1000 nM. Moreover, in test [1], the Dmax was less than 50% and the DC50 was not below 1000 nM.

For the molecule `Cc1ncsc1-c1ccc([C@H](C)NC(=O)[C@@H]2C[C@@H](O)CN2C(=O)[C@@H](c2cc(OCCN3C[C@H]4C[C@@H](C3)[C@@H]4c3sc4nnc(-c5ccccc5O)cc4c3C)no2)C(C)C)cc1` [Compound 63, (2S,4R)-4-hydroxy-1-((R)-2-(3-(2-((1R,5S,6R)-6-(3-(2-hydroxyphenyl)-5-methylthieno[2,3-c]pyridazin-6-yl)-3-azabicyclo[3.1.1]heptan-3-yl)ethoxy)isoxazol-5-yl)-3-methylbutanoyl)-N-((S)-1-(4-(4-methylthiazol-5-yl)phenyl)ethyl)pyrrolidine-2-carboxamide], on HiBit-BRM fusion protein, the “BRM HiBit Degradation Maximum (%)” value was “A (“A” indicates maximum degradation ≥ 75%)” and the DC50 was not below 10 nM. For the same molecule, in test [1], the Dmax is less than 50% and the DC50 is not below 1000 nM.

As for `Cc1ncsc1-c1ccc([C@H](C)NC(=O)[C@@H]2C[C@@H](O)CN2C(=O)[C@@H](c2cc(C34CC(C(=O)N5CCC(c6sc7nnc(-c8ccccc8O)cc7c6C)CC5)(C3)C4)no2)C(C)C)cc1` [Compound 64, (2S,4R)-4-hydroxy-1-((R)-2-(3-(3-(4-(3-(2-hydroxyphenyl)-5-methylthieno[2,3-c]pyridazin-6-yl)piperidine-1-carbonyl)bicyclo[1.1.1]pentan-1-yl)isoxazol-5-yl)-3-methylbutanoyl)-N-((S)-1-(4-(4-methylthiazol-5-yl)phenyl)ethyl)pyrrolidine-2-carboxamide], on HiBit-BRM fusion protein, the “BRM HiBit Degradation Maximum (%)” value is reported as “A (“A” indicates maximum degradation ≥ 75%)” and the DC50 is less than 10 nM. In test [1], the Dmax is not below 75% and the DC50 is less than 10 nM.

For the molecule `Cc1ncsc1-c1ccc([C@H](C)NC(=O)[C@@H]2C[C@@H](O)CN2C(=O)[C@@H](NC(=O)c2cnc(N3CCC(c4sc5nnc(-c6ccccc6O)cc5c4C)CC3)nc2)C(C)(C)C)cc1` [Compound 65, N-((S)-1-((2S,4R)-4-hydroxy-2-(((S)-1-(4-(4-methylthiazol-5-yl)phenyl)ethyl)carbamoyl)pyrrolidin-1-yl)-3,3-dimethyl-1-oxobutan-2-yl)-2-(4-(3-(2-hydroxyphenyl)-5-methylthieno[2,3-c]pyridazin-6-yl)piperidin-1-yl)pyrimidine-5-carboxamide], on HiBit-BRM fusion protein, the “BRM HiBit Degradation Maximum (%)” value was “A (“A” indicates maximum degradation ≥ 75%)” and the DC50 was not below 10 nM. Also, in test [1], the Dmax was less than 50% and the DC50 is not below 1000 nM.

(Values after patent publication US20240376121A1, “COMPOUNDS AND USES THEREOF” (Foghorn Therapeutics Inc., priority 2021, published 2024).)
